Drawing on PubChem BioAssay (NCI), this text covers TGI and GI50 for three compounds.

Structures are written as SMILES. Several values for one entry are separate records, joined by “and”; a condition that tells them apart may be missing. Equal values may be shown once.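 Values below derive from 48-hour exposures of cells grown in 96-well plates, with endpoints linearly interpolated between the two concentrations bracketing the appropriate inhibition level. GI50 is the concentration that inhibits growth by half. Definition used: TGI = concentration required for complete inhibition of growth.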

The experiment relates to SN12K1 renal. Description: NCI-60 cell line screen, 48 h.

`CC1=CCCC2C1(C)CCC(C)C2(C)Cc1cc(O)ccc1O` (centres undefined) came in with a TGI of 13500 nM. `O=C1NC2C(=CC(O)C(O)C2O)c2cc3c(cc21)OCO3` (centres undefined) had a TGI of 1800 nM. With `COc1cc2c(c(OC)c1OC)-c1ccc(OC)c(=O)cc1[C@@H](NC(C)=O)CC2`, the GI50 is 2.98 nM; the TGI is 6.25 nM and < 62.5 nM.
